Data reported in patent US5308836A, “Pharmaceutical composition of stabilized [Leu^13 ]-motilin-Hse” (Sanwa Kagaku Kenkyusho Co., Ltd., priority 1991, dated 1994).
Like-named read-outs stand apart in the source and are kept apart here.

Experiments:
[1] = compared with native type motilin and [Leu^13 ]-motilin; cited from earlier work
[2] = type: physicochemical; conditions: for Amount of formed [Leu^13 ]-motilin-Hse-lactone: aqueous solution 20 μg/ml
Description: An aqueous solution containing 20 μg/ml of [Leu^13 ]-motilin-Hse was aseptically prepared by dissolving 1 mg of [Leu^13 ]-motilin-Hse in a refined water and adding 0.1N-sodium hydroxide and 0.1N-hydrochloric acid to adjust pH of the solution to 6.0 or 7.0.
Each of the solutions different in pH value was aseptically charged in a glass vial to seal the same. Each vial was stored in a constant temperature bath kept at 60° C. for 30 days and then a remaining amount of [Leu^13 ]-motilin-Hse was measured with HPLC method. […]
An aqueous solution containing 20 μg of [Leu^13 ]-motilin-Hse and 30 mg/ml of tartaric acid was aseptically prepared by dissolving 1 mg of [Leu^13 ]-motilin-Hse and tartaric acid in a refined water and adding 0.1N-sodium hydroxide and 0.1N-hydrochloric acid to adjust pH of the solution to 6.0 or 7.0.
(§1) Aqueous solutions, each containing 20 μg/ml of [Leu^13 ]-motilin were aseptically prepared by dissolving 1 mg of [Leu^13 ]-motilin in a refined water and adding 0.1N-sodium hydroxide and 0.1N-hydrochloric acid to adjust pH of each solution in various values.
Each of the solutions different in pH value was aseptically charged in a glass vial to seal the same. Each vial was stored in a constant temperature bath kept at 60° C. for 30 days and then a remaining amount of [Leu^13 ]-motilin was measured with HPLC method to check the relation with the pH value of the solution.
Aqueous solutions, each containing 20 μg/ml of [Leu^13 ]-motilin-Hsewere aseptically prepared by dissolving 1 mg of [Leu^13 ]-motilin-Hse in a refined water and adding 0.1 N-sodium hydroxide and 0.1 N-hydrochloric acid to adjust pH of each solution in various values.
Each of the solutions different in pH value was aseptically charged in a glass vial to seal the same. Each vial was stored in a constant temperature bath kept at 60° C. for 30 days and then a remaining amount of [Leu^13 ]-motilin-Hse and amount of [Leu^13 ]-motilin-Hse-lactone formed by modification of Hse residue at 23-position of the former were measured with HPLC method to check the relation with the pH value of the solution.
Aqueous solutions, each containing 20 μg/ml of [Leu^13 ]-motilin-Hseand 30 mg/ml of tartaric acid were aseptically prepared by dissolving 1 mg of [Leu^13 ]-motilin-Hse and tartaric acid in a refined water and adding 0.1 N-sodium hydroxide and 0.1 N-hydrochloric acid to adjust pH of each solution in various values.
Aqueous solutions, each containing 20 μg/ml of [Leu^13 ]-motilin-Hseand 27.2 mg/ml of potassium dihydrogenphosphate were aseptically prepared by dissolving 1 mg of [Leu^13 ]-motilin-Hse and potassium dihydrogenphosphate in a refined water and adding 0.1 N sodium hydroxide and 0.1 N-hydrochloric acid to adjust pH of each solution in various values.

[3] = type: physicochemical; conditions: lyophilized powder, no additive
Description: as §1
Each of the solutions different in pH value was aseptically charged in a glass vial to lyophilize the same. Each vial was stored in a constant temperature bath kept at 60° C. for 30 days and then a remaining amount of [Leu^13 ]-motilin was measured with HPLC method to check the relation with the pH value of the solution.
Aqueous solutions, each containing 20 μg/ml of [Leu^13 ]-motilin-Hsewere aseptically prepared by dissolving 1 mg of [Leu^13 ]-motilin-Hse in a refined water and adding 0.1N-sodium hydroxide and 0.1N-hydrochloric acid to adjust pH of each solution in various values.
Each of the solutions different in pH value was aseptically charged in a glass vial to lyophilize the same. Each vial was stored in a constant temperature bath kept at 60° C. for 30 days and then a remaining amount of [Leu^13 ]-motilin-Hse and amount of [Leu^13 ]-motilin-Hse-lactone formed by modification of Hse residue at 23-position of the former were measured with HPLC method to check the relation with the pH value of the solution. […]

Question: Which biological activities [1] does the source give for [Leu^13 ]-motilin-Hse here?
Answer: higher biological activities

Question: What about the “pH range of relatively stable state” value ([2]; [Leu^13 ]-motilin-Hse aqueous solution, no additive, 60° C. 30 days) of the same substance?
Answer: 4.0-6.0

Question: And the “Amount of formed [Leu^13 ]-motilin-Hse-lactone” value (from here on “Amount of formed”) ([2]; 27.2 mg/ml potassium dihydrogenphosphate, pH 3.0, 60° C. 30 days)?
Answer: 31.1%

Question: What about the “Amount of formed” value ([2]; 27.2 mg/ml potassium dihydrogenphosphate, pH 4.0, 60° C. 30 days) of the same substance?
Answer: 17.5%

Question: And the “Amount of formed” value ([2]; 27.2 mg/ml potassium dihydrogenphosphate, pH 4.5, 60° C. 30 days)?
Answer: 9.3%

Question: And the “Amount of formed” value ([2]; 27.2 mg/ml potassium dihydrogenphosphate, pH 5.0, 60° C. 30 days)?
Answer: 5.7%

Question: And the “Amount of formed” value ([2]; 27.2 mg/ml potassium dihydrogenphosphate, pH 5.5, 60° C. 30 days)?
Answer: 2.1%

Question: And the “Amount of formed” value ([2]; 27.2 mg/ml potassium dihydrogenphosphate, pH 6.0, 60° C. 30 days)?
Answer: 0%

Question: What about the “Amount of formed” value ([2]; 27.2 mg/ml potassium dihydrogenphosphate, pH 6.5, 60° C. 30 days) of the same substance?
Answer: 0%

Question: What about the “Amount of formed” value ([2]; 27.2 mg/ml potassium dihydrogenphosphate, pH 7.0, 60° C. 30 days) of the same substance?
Answer: 0%

Question: And the “Amount of formed” value ([2]; 27.2 mg/ml potassium dihydrogenphosphate, pH 8.0, 60° C. 30 days)?
Answer: 0%

Question: And the “Amount of formed” value ([2]; 27.2 mg/ml potassium dihydrogenphosphate, pH 9.0, 60° C. 30 days)?
Answer: 0%

Question: And the “Amount of formed” value ([2]; 30 mg/ml tartaric acid, pH 3.0, 60° C. 30 days)?
Answer: 29.7%

Question: What about the “Amount of formed” value ([2]; 30 mg/ml tartaric acid, pH 4.0, 60° C. 30 days) of the same substance?
Answer: 16.8%

Question: And the “Amount of formed” value ([2]; 30 mg/ml tartaric acid, pH 4.5, 60° C. 30 days)?
Answer: 6.4%

Question: And the “Amount of formed” value ([2]; 30 mg/ml tartaric acid, pH 5.0, 60° C. 30 days)?
Answer: 2.7%

Question: And the “Amount of formed” value ([2]; 30 mg/ml tartaric acid, pH 5.5, 60° C. 30 days)?
Answer: 1.5%

Question: And the “Amount of formed” value ([2]; 30 mg/ml tartaric acid, pH 6.0, 60° C. 30 days)?
Answer: 0%

Question: And the “Amount of formed” value ([2]; 30 mg/ml tartaric acid, pH 6.5, 60° C. 30 days)?
Answer: 0%

Question: What about the “Amount of formed” value ([2]; 30 mg/ml tartaric acid, pH 7.0, 60° C. 30 days) of the same substance?
Answer: 0%

Question: And the “Amount of formed” value ([2]; 30 mg/ml tartaric acid, pH 8.0, 60° C. 30 days)?
Answer: 0%

Question: What about the “Amount of formed” value ([2]; 30 mg/ml tartaric acid, pH 9.0, 60° C. 30 days) of the same substance?
Answer: 0%

Question: What about the “Amount of formed” value ([2]; no additive, pH 3.0, 60° C. 30 days) of the same substance?
Answer: 30.2%

Question: What about the “Amount of formed” value ([2]; no additive, pH 4.0, 60° C. 30 days) of the same substance?
Answer: 18.7%

Question: And the “Amount of formed” value ([2]; no additive, pH 4.5, 60° C. 30 days)?
Answer: 8.7%

Question: What about the “Amount of formed” value ([2]; no additive, pH 5.0, 60° C. 30 days) of the same substance?
Answer: 5.5%

Question: What about the “Amount of formed” value ([2]; no additive, pH 5.5, 60° C. 30 days) of the same substance?
Answer: 1.9%

Question: And the “Amount of formed” value ([2]; no additive, pH 6.0, 60° C. 30 days)?
Answer: 0%

Question: What about the “Amount of formed” value ([2]; no additive, pH 6.5, 60° C. 30 days) of the same substance?
Answer: 0%

Question: And the “Amount of formed” value ([2]; no additive, pH 7.0, 60° C. 30 days)?
Answer: 0%

Question: And the “Amount of formed” value ([2]; no additive, pH 8.0, 60° C. 30 days)?
Answer: 0%

Question: And the “Amount of formed” value ([2]; no additive, pH 9.0, 60° C. 30 days)?
Answer: 0%

Question: What about the “Amount of formed” value ([3]; solution pH 3.0, 60° C. 30 days) of the same substance?
Answer: 25.1%

Question: And the “Amount of formed” value ([3]; solution pH 4.0, 60° C. 30 days)?
Answer: 16.9%

Question: And the “Amount of formed” value ([3]; solution pH 4.5, 60° C. 30 days)?
Answer: 7.3%

Question: What about the “Amount of formed” value ([3]; solution pH 5.0, 60° C. 30 days) of the same substance?
Answer: 3.9%

Question: And the “Amount of formed” value ([3]; solution pH 5.5, 60° C. 30 days)?
Answer: 1.8%

Question: What about the “Amount of formed” value ([3]; solution pH 6.0, 60° C. 30 days) of the same substance?
Answer: 0%

Question: And the “Amount of formed” value ([3]; solution pH 6.5, 60° C. 30 days)?
Answer: 0%

Question: What about the “Amount of formed” value ([3]; solution pH 7.0, 60° C. 30 days) of the same substance?
Answer: 0%

Question: What about the “Amount of formed” value ([3]; solution pH 8.0, 60° C. 30 days) of the same substance?
Answer: 0%

Question: What about the “Amount of formed” value ([3]; solution pH 9.0, 60° C. 30 days) of the same substance?
Answer: 0%
